Experimental data from patent publication US20250333733A1, “NOVEL TARGETS AGAINST OVARIAN CANCER” (UNIVERSITY OF PUERTO RICO, priority 2022, published 2025).

Assays:
OVCAR3CIS cells = assay: Western blot of apoptotic-related and cell-cycle related proteins; format: cell-based; conditions: vs NC-siRNA
Protocol: Cell pellets were lysed with complete lysis buffer and total protein concentration […]. Protein samples were separated by SDS-PAGE, blotted onto nitrocellulose membranes, blocked in either 5% non-fat dry milk (Bio-Rad) or 5% BSA (HyClone), and probed with the appropriate dilution of corresponding primary antibody. Membranes were rinsed and incubated with corresponding HRP-conjugated secondary antibody, followed by enhanced chemiluminescence and autoradiography.

Caspase-3 = Caspase-3 fluorometric activity in SKOV3ip1CIS cells; format: cell-based, human; conditions: 72 hours after transfection, vs NC-siRNA
Protocol: Caspase-3 activity was quantified using the Caspase-3/CPP32 Fluorometric Assay Kit (BioVision CA, USA) as per the manufacturer's instructions. OVCAR3CIS (3.0×10^4 cells/mL) or SKOV3ip1CIS (3.5×10^4 cells/mL) were seeded into 10 cm Petri dishes and transfected with NC-siRNA or CASC10-siRNA (2). Twenty-four hours later, the media was replaced by regular media, and seventy-two hours after transfection, cells were collected, pellets lysed, and total protein concentration determined. Equal amounts of protein were mixed with 2×Reaction Buffer and 1 mM DEVD-AFC substrate in a 96-well plate and incubated at 37° C. for 2.5 hours. Fluorescence intensity at 400 nm excitation and 505 nm emission was measured.

Substance: CASC10-siRNA (2): siRNA targeting CASC10 RNA, SEQ ID NO 3 and 4: 5′ GACUCUUGGAUCCAAGUUU(dT)(dT) 3′ / 5′ AAACUUGGAUCCAAGAGUC(dT)(dT) 3′ (chain 1 GACUCUUGGAUCCAAGUUUNN; chain 2 AAACUUGGAUCCAAGAGUCNN; 3' dTdT overhangs, chemistry not fully specified)
- Bcl-2 protein (OVCAR3CIS cells): strong reduction
- CDK4 protein (OVCAR3CIS cells): reduction
- Cyclin E1 protein (OVCAR3CIS cells): reduction
- cleaved Caspase-3 protein (OVCAR3CIS cells): significant increase
- cleaved Caspase-9 protein (OVCAR3CIS cells): significant increase
- cleaved PARP-1 protein (OVCAR3CIS cells): significant increase
- p27 protein levels (OVCAR3CIS cells): reduction
- increase in caspase-3 activity (Caspase-3): 4 fold
